{"source": "patent US7169750B2", "about": "“Methods to mobilize progenitor/stem cells” (Anormed, Inc., priority 2001, dated 2007)", "key": {"[1]": {"test_system": "rats with ligated left coronary artery", "conditions": "administered within hours after induction of cardiac ischemia, with or without rhG-CSF", "method": "Adult rats are anesthetized and a thoracotomy is performed. The descending branch of the left coronary artery is ligated and not reperfused. […] Control rats are not treated with the reagents. The animals are monitored at one-week intervals by echocardiography and MRI. The experiment is terminated at 2, 6 to 12 weeks post-surgery. On the day of sacrifice, the hemodynamic functions are analyzed for left ventricle-end diastolic pressure, left ventricle-developed pressure and the rate of rise and fall of left ventricle pressure. The heart is then arrested in diastole and perfuised via the abdominal aorta to flush residual blood from the vascular network of the myocardium. This is followed by perfusion of the heart with 10% formalin. Several slices are made through the fixed heart and these are embedded in paraffin and sections. The sections are stained and analyzed by light microscopy to determine the size of the infarct in the treated and control animals. Tissue sections from hearts taken at 2 weeks after surgery are stained with antibodies specific for immature, developing myocyte and blood vessel proteins and analyzed by confocal microscopy. The immunohistochemical analysis involves the identification of transcription factors and surface markers expressed in early stages of myocyte development."}, "[2]": {"test_system": "granulocyte macrophage (CFU-GM), erythroid (BFU-E), and multipotential (CFU-GEMM) progenitor cells", "protocol": "(§1) Five healthy human volunteers having initial white blood cell counts of 4,500–7,500 cells/mm^3 were used in the study. […] Blood samples were obtained via catheter prior to the dose, and at various times up to 24 hours after dosing.\n(§2) All progenitor cell results are based on the scoring of 3 culture plates per assay per point.\n(§3) For the progenitor cell numbers and cycling status, the numbers of CFU-GM, BFU-E and CFU-GEMM in methylcellulose cultures by stimulation of the cells with 1 Unit (U)/ml recombinant human (rhu) erythropoietin, 100 U/ml rhu granulocyte-macrophage colony stimulating factor (GM-CSF), 100 U/ml rhu interleukin-3 (IL-3) and 50 ng/ml rhu steel factor (SLF=stem cell factor (SCF)). The CFU-GM were also evaluated in agar cultures stimulated with 100 U/ml rhu GM-CSF and 50 ng/ml rhu SLF. For both types of assays, colonies were scored after 14 day incubation in a humidified atmosphere with 5% CO2 and lowered (5%) O2 tension. Cell cycling status of progenitors was measured using a high specific activity tritiated thymidine kill technique as previously described (Broxmeyer, H. E., et al., Exp. Hematol. (1989) 17:455–459)."}, "CFU-GM": {"test_system": "CFU-GM", "conditions": "80 μg/kg s.c.", "protocol": "as §1, §2, §3"}, "[3]": {"test_system": "circulating CD34+ progenitor/stem cells", "conditions": "single dose of 80 μg/kg; 6 hour time point; Phase 1 study (Liles, et al.); cited from earlier work"}, "CXCR4 chemokine receptor": {"target": "CXCR4 chemokine receptor (Homo sapiens, UniProt P61073)", "sequence (P61073 whole entry)": "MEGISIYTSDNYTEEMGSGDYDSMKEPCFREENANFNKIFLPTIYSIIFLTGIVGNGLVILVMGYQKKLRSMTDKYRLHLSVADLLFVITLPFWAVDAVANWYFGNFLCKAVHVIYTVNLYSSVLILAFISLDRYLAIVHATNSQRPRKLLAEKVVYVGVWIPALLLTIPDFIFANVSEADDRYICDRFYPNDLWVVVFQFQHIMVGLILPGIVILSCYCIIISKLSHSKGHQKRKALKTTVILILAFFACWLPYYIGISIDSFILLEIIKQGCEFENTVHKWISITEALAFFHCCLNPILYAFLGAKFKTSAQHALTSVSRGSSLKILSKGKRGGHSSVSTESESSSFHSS", "conditions": "Gerlach, et al., J.Biol. Chem. (2001); cited from earlier work"}, "progenitor cells": {"test_system": "progenitor cells", "conditions": "AMD3100 5 mg/Kg s.c. + MIP-1α 5 μg I.V., 11 hours after rhu G-CSF or saline, 1 hour prior to assessing the blood", "method": "Groups of mice were randomized to receive control diluent (saline) or G-CSF at a dose of 2.5 μg per mouse, twice a day, for two days via s.c. injection. […] One hour later, the mice were sacrificed and the number of progenitor cells per mL of blood were measured."}, "WBC": {"test_system": "WBC", "conditions": "single dose of 80 μg/kg; Phase 1 study (Liles, et al.); cited from earlier work"}, "nucleated cells": {"test_system": "nucleated cells", "conditions": "T = 3 h; average of 5 donors; 80 μg/kg s.c."}, "[4]": {"test_system": "progenitors in DNA synthesis (S) phase", "conditions": "prior to and 1, 3, 6, 9 and 24 hours after injection", "method": "For the progenitor cell numbers and cycling status, the numbers of CFU-GM, BFU-E and CFU-GEMM in methylcellulose cultures by stimulation of the cells with 1 Unit (U)/ml recombinant human (rhu) erythropoietin, 100 U/ml rhu granulocyte-macrophage colony stimulating factor (GM-CSF), 100 U/ml rhu interleukin-3 (IL-3) and 50 ng/ml rhu steel factor (SLF=stem cell factor (SCF)). […] For both types of assays, colonies were scored after 14 day incubation in a humidified atmosphere with 5% CO2 and lowered (5%) O2 tension. Cell cycling status of progenitors was measured using a high specific activity tritiated thymidine kill technique as previously described (Broxmeyer, H. E., et al., Exp. Hematol. (1989) 17:455–459)."}}, "note": "Where two headings read alike, the source gives them in different places."}
{"smiles": "c1cc(CN2CCCNCCNCCCNCC2)ccc1CN1CCCNCCNCCCNCC1", "note": "[AMD3100, 1,1′-[1,4-phenylene-bis(methylene)]-bis-1,4,8,11-tetraazacyclotetradecane]", "values": [{"measurement": "cardiac remodeling and scar formation", "setting": "[1]", "value": "block to cardiac remodeling and scar formation"}, {"measurement": "mobilization of bone marrow stem cells", "setting": "[1]", "value": "mobilizes bone marrow stem cells rapidly"}, {"measurement": "regeneration of myocardium", "setting": "[1]", "value": "regeneration of the dead myocardium"}, {"measurement": "CFU-GEMM methylcellulose culture fold change from T=0", "setting": "[2]; P1, T = 1 h, 80 μg/kg s.c.", "value": 2.07, "unit": "fold"}, {"measurement": "CFU-GEMM methylcellulose culture fold change from T=0", "setting": "[2]; P1, T = 24 h, 80 μg/kg s.c.", "value": 1.12, "unit": "fold"}, {"measurement": "CFU-GM methylcellulose culture fold change from T=0", "setting": "[2]; P1, T = 24 h, 80 μg/kg s.c.", "value": 1.10, "unit": "fold"}, {"measurement": "BFU-E methylcellulose culture fold change from T=0", "setting": "[2]; P2, T = 1 h, 80 μg/kg s.c.", "value": 1.48, "unit": "fold"}, {"measurement": "BFU-E methylcellulose culture fold change from T=0", "setting": "[2]; P3, T = 1 h, 80 μg/kg s.c.", "value": 2.30, "unit": "fold"}, {"measurement": "CFU-GM methylcellulose culture fold change from T=0", "setting": "[2]; P3, T = 1 h, 80 μg/kg s.c.", "value": 3.70, "unit": "fold"}, {"measurement": "CFU-GEMM methylcellulose culture fold change from T=0", "setting": "[2]; P3, T = 9 h, 80 μg/kg s.c.", "value": 2.47, "unit": "fold"}, {"measurement": "CFU-GEMM methylcellulose culture fold change from T=0", "setting": "[2]; P3, T = 24 h, 80 μg/kg s.c.", "value": 0.69, "unit": "fold"}, {"measurement": "BFU-E methylcellulose culture fold change from T=0", "setting": "[2]; P4, T = 3 h, 80 μg/kg s.c.", "value": 2.60, "unit": "fold"}, {"measurement": "CFU-GEMM methylcellulose culture fold change from T=0", "setting": "[2]; P4, T = 6 h, 80 μg/kg s.c.", "value": 9.10, "unit": "fold"}, {"measurement": "BFU-E methylcellulose culture fold change from T=0", "setting": "[2]; P4, T = 24 h, 80 μg/kg s.c.", "value": 0.79, "unit": "fold"}, {"measurement": "CFU-GEMM methylcellulose culture fold change from T=0", "setting": "[2]; P4, T = 24 h, 80 μg/kg s.c.", "value": 0.98, "unit": "fold"}, {"measurement": "CFU-GEMM methylcellulose culture fold change from T=0", "setting": "[2]; P5, T = 3 h, 80 μg/kg s.c.", "value": 4.43, "unit": "fold"}, {"measurement": "CFU-GM methylcellulose culture fold change from T=0", "setting": "[2]; P5, T = 3 h, 80 μg/kg s.c.", "value": 8.40, "unit": "fold"}, {"measurement": "BFU-E methylcellulose culture % CHG", "setting": "[2]; T = 1 h, mean of five donors, 80 μg/kg s.c.", "value": 98.9, "unit": "%"}, {"measurement": "time of maximal fold increases in circulating levels of progenitor cells", "setting": "[2]; after injection, all five donors", "value": 6, "unit": "h"}, {"measurement": "CFU-GM agar culture fold change from T=0", "setting": "CFU-GM; P4, T = 24 h", "value": 1.30, "unit": "fold"}, {"measurement": "CFU-GM agar culture fold change from T=0", "setting": "CFU-GM; P5, T = 3 h", "value": 6.40, "unit": "fold"}, {"measurement": "CFU-GM agar culture fold change from T=0", "setting": "CFU-GM; P5, T = 24 h", "value": 2.20, "unit": "fold"}, {"measurement": "peak increase in circulating CD34+ progenitor/stem cells", "setting": "[3]", "value": 6, "unit": "fold"}, {"measurement": "action at the CXCR4 chemokine receptor", "setting": "CXCR4 chemokine receptor", "value": "antagonist"}, {"measurement": "mobilization of progenitor cells in combination with mu MIP-1α", "setting": "progenitor cells", "value": "additive to greater than additive"}, {"measurement": "WBC count", "setting": "WBC", "value": "17,000 / μl"}, {"measurement": "PBL-LD nucleated cellularity Fold Change Compared to TIME = 0, MEAN", "setting": "nucleated cells", "value": 2.86, "unit": "fold"}, {"measurement": "PBL-US nucleated cellularity Fold Change Compared to TIME = 0, MEAN", "setting": "nucleated cells", "value": 2.80, "unit": "fold"}, {"measurement": "cycling state of progenitors", "setting": "[4]", "value": "slow or non-cycling state"}]}
